Reference: patent publication US8450374B2, “Pan-antagonists for the androgen receptor and androgen receptor mutants associated with anti-androgen withdrawal” (priority 2009, dated 2013)
Numbering of substitutions follows the chain as printed. “Also recorded” adds a separate entry of the source.

Key:
[1] = target: T1, AR W741C (Homo sapiens, UniProt P10275, W742C); assay: Transcription assay (ARE-luciferase reporter) in CV-1 cells, AR W741C; type: cell-based; parameters: expressed in transfected cells; host or cells: CV-1; settings: for Antagonist efficacy (RLU value at IC50), AR W741C: in competition with 200 nM DHT
T1 sequence (P10275 1-920 W742C): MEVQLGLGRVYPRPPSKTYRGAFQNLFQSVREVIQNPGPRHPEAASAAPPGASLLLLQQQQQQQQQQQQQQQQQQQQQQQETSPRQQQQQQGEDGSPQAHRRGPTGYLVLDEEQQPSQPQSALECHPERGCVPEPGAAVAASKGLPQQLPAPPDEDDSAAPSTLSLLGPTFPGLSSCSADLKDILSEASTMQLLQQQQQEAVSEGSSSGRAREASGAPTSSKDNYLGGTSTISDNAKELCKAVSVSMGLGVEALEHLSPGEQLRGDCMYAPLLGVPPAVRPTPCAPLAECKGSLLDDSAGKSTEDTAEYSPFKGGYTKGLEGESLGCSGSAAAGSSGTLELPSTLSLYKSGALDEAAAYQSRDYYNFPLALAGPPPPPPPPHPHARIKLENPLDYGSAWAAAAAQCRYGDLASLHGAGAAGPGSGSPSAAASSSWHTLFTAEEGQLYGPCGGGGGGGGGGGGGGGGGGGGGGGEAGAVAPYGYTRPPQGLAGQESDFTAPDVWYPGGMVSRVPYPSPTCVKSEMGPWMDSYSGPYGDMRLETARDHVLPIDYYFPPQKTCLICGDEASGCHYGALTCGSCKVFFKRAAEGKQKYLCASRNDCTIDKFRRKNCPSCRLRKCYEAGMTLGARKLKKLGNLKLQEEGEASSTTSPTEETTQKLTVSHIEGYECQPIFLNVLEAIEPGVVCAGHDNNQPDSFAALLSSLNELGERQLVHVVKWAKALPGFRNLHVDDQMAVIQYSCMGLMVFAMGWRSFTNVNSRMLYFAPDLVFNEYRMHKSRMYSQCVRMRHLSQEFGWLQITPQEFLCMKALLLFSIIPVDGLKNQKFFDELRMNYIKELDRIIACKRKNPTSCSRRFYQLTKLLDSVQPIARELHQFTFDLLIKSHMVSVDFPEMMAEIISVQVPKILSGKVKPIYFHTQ
Procedure: Twenty-four hours prior to transfection, CV-1 cells were seeded at a density of 45,000 cells per well in 24-well cell culture plates and grown in phenol red free Dulbecco's Modified Eagle Medium (DMEM) supplemented with 10% cosmic calf serum (COS). ARE-luciferase reporter and Renilla-Luc as the internal standard and a prokaryotic expression vector encoding the wild-type androgen receptor or mutant androgen receptor were transfected with Lipofectamine (Invitrogen) following manufacturer's protocol. Five hours after transfection, media was added containing the appropriate concentrations of ligands. The cells were allowed to incubate for 38 hours before harvesting by passive lysis buffer. Cell extracts were immediately assayed using the Dual Luciferase Assay (Promega) with a Perkin-Elmer Microbeta Luminometer. […] Dose-response data was analyzed by nonlinear regression analysis using GraphPad Prism.

[2] = target: T2, AR ligand-binding domain (LBD) (Homo sapiens, UniProt P10275); assay: Coactivator peptide recruitment by TR-FRET; type: biochemical; settings: read after 2 h and 4 h incubation
T2 construct: purchased Invitrogen PV8431
T2 sequence (P10275 669-900 limits assumed): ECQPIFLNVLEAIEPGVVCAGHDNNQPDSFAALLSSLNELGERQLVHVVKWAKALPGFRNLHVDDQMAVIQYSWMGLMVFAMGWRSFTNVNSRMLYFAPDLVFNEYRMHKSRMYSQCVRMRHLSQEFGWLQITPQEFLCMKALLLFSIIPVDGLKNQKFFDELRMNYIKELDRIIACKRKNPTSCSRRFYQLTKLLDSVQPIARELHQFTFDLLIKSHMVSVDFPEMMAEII
Procedure: Briefly, serial dilutions of ligand stocks solutions (in DMSO) were made in TR-FRET coregulator buffer A in a 384 well plate. To each well was added a 4×-stock solution of the AR-LBD followed by a 4× stock solution of fluorescein D-11 peptide and lanthanide-labeled antiGST antibody. The plates were read by time resolved fluorescence after 2 h and 4 h incubation.

[3] = target: T3, AR protein levels in LNCaP cells (Homo sapiens, UniProt P10275, T878A); assay: AR downregulation by western blot, LNCaP cells; type: cell-based; settings: LNCaP cells, 10, 50 or 100 μM, 24 h
T3 construct: endogenous in cells; host or cells: LNCaP
T3 sequence (P10275 1-920 T878A): T1 sequence (P10275 1-920 W742C) with C742W, T878A
Procedure: Compounds that down regulate the levels of AR in prostate cancer may be effective in androgen dependent cells and anti-androgen resistant cells that over express the androgen receptor. […] LNCaP or CRW22RV1 cells were treated with 10 μM, 50 μM or 100 μM compound for 24 h. Cells were harvested and lysed. Cell lysates were analyzed by SDS-PAGE followed by immunostaining with anti-AR and anti-lamin antibodies (see FIGS. 15 and 16).

[4] = In vivo tolerability of PAN52; parameters: species or system Male C57Bl/6 mice; settings: 25 mg/kg/day IP in 9:1 Cremophor, 3 day or 5 day course
[5] = test system: mouse prostates; assay: Prostate apoptosis by TUNEL after IP PAN52; type: in vivo, Male C57Bl/6 mice; settings: 25 mg/kg/day IP, day 3 and day 5, TUNEL
Procedure: FIG. 17. Quantification of apoptotic cells from prostate tissues where mice were treated short-term by intraperitoneal (IP) injection with PAN52 at 25 mg/kg/day versus vehicle control for either 3 days or 5 days (right). Single 20× magnification fields from each of four lobes of mouse prostate glands were counted in each mouse.

SMILES	IC50 [1] [µM]	Antagonist efficacy (RLU value at IC50), AR W741C [1]	Coactivator peptide (D11, FXXLF) association with AR(LBD) [2]	AR protein levels relative to bicalutamide, DHT or DMSO controls [3]	Behavior in grooming or feeding [4]	Apoptosis in prostate compared to control [5]
CC(O)(CS(=O)(=O)c1ccccc1-c1ccccc1O)C(=O)Nc1ccc(C#N)c(C(F)(F)F)c1 (stereo not drawn) [PAN41, N-(4-cyano-3-(trifluoromethyl)phenyl)-2-hydroxy-3-(2′-hydroxybiphenyl-2-ylsulfonyl)-2-methylpropanamide]	8 ± 2.6	(50% ± 1.0%)	–	–	–	–
CN(C)CCCOc1cccc(-c2ccccc2S(=O)(=O)CC(C)(O)C(=O)Nc2ccc(C#N)c(C(F)(F)F)c2)c1 (stereo not drawn) [PAN52]	5.9 ± 2.5	(50% ± 1.0%)	do not show coactivator association	downregulation of AR protein levels	no abnormal behavior in grooming or feeding	increase in apoptosis; also recorded: induced rapid apoptosis
CN(C)CCCOc1cccc(Cc2ccccc2S(=O)(=O)CC(C)(O)C(=O)Nc2ccc(C#N)c(C(F)(F)F)c2)c1 (stereo not drawn) [PAN22]	5.6 ± 0.8	(53% ± 2.1%)	–	–	–	–
CN(C)CCCOc1ccc(-c2ccccc2S(=O)(=O)CC(C)(O)C(=O)Nc2ccc(C#N)c(C(F)(F)F)c2)cc1 (stereo not drawn) [PAN62]	15 ± 17	(56% ± 5.7%)	–	–	–	–
